# Test results published in publication PMC9181188 (International Journal of Molecular Sciences, 2022).
# Test system: M. tuberculosis Spec. 210 (Multidrug-Resistant)
# Assay: microbe, parasite or virus in culture
# Assay type: cell-based, Mycobacterium tuberculosis
# Conditions: Mycobacterium tuberculosis, 336 h, read-out: MIC M. tuberculosis Spec. 210 (Multidrug-Resistant)
row,Compound,MIC
1,"C/C=C/C(=O)N1CCCC2CN(c3c(F)cc4c(=O)c(C(=O)O)cn(C5CC5)c4c3OC)CC21 (stereo not drawn) [Compound 1m, 7-{1-(E)-But-2-enoyl-octahydro-pyrrolo[3,4-b]pyridin-6-yl}-1-cyclopropyl-6-fluoro-8-methoxy-4-oxo-1,4-dihydro-quinoline-3-carboxylic acid]",64 µg/mL
2,"COc1c(N2CC3CCCN(C(=O)/C=C(\C)CCC=C(C)C)C3C2)c(F)cc2c(=O)c(C(=O)O)cn(C3CC3)c12 (stereo not drawn) [Compound 3m, 1-Cyclopropyl-7-{1-(2E)-(3,7-dimethyl-octa-2,6-dienoyl)-octahydro-pyrrolo[3,4-b]pyridin-6-yl}-6-fluoro-8-methoxy-4-oxo-1,4-dihydro-quinoline-3-carboxylic acid]",128 µg/mL
3,"CCCCCCCC/C=C\CCCCCCCC(=O)N1CCCC2CN(c3c(F)cc4c(=O)c(C(=O)O)cn(C5CC5)c4c3OC)CC21 (stereo not drawn) [Compound 4m, 1-Cyclopropyl-6-fluoro-8-methoxy-7-{1-(Z)-octadec-9-enoyl-octahydro-pyrrolo[3,4-b]pyridin-6-yl}-4-oxo-1,4-dihydro-quinoline-3-carboxylic acid]",> 512 µg/mL
4,"CCCCCCCC/C=C/CCCCCCCC(=O)N1CCCC2CN(c3c(F)cc4c(=O)c(C(=O)O)cn(C5CC5)c4c3OC)CC21 (stereo not drawn) [Compound 5m, 1-Cyclopropyl-6-fluoro-8-methoxy-7-{1-(E)-octadec-9-enoyl-octahydro-pyrrolo[3,4-b]pyridin-6-yl}-4-oxo-1,4-dihydro-quinoline-3-carboxylic acid]",256 µg/mL
5,"CC/C=C\C/C=C\C/C=C\CCCCCCCC(=O)N1CCCC2CN(c3c(F)cc4c(=O)c(C(=O)O)cn(C5CC5)c4c3OC)CC21 (stereo not drawn) [Compound 6m, 1-Cyclopropyl-6-fluoro-8-methoxy-7-{1-(9Z,12Z,15Z)-octadeca-9,12,15-trienoyl-octahydro-pyrrolo[3,4-b]pyridin-6-yl}-4-oxo-1,4-dihydro-quinoline-3-carboxylic acid]",256 µg/mL
6,"CCCCCCCC/C=C\CCCCCCCCCCCC(=O)N1CCCC2CN(c3c(F)cc4c(=O)c(C(=O)O)cn(C5CC5)c4c3OC)CC21 (stereo not drawn) [Compound 7m, 1-Cyclopropyl-7-{1-(Z)-docos-13-enoyl-octahydro-pyrrolo[3,4-b]pyridin-6-yl}-6-fluoro-8-methoxy-4-oxo-1,4-dihydro-quinoline-3-carboxylic acid]",> 512 µg/mL
7,"CC/C=C\C/C=C\C/C=C\C/C=C\C/C=C\C/C=C\CCC(=O)N1CCCC2CN(c3c(F)cc4c(=O)c(C(=O)O)cn(C5CC5)c4c3OC)CC21 (stereo not drawn) [Compound 8m, 1-Cyclopropyl-7-{1-(4Z,7Z,10Z,13Z,16Z,19Z)-docosa-4,7,10,13,16,19-hexaenoyl-octahydro-pyrrolo[3,4-b]pyridin-6-yl}-6-fluoro-8-methoxy-4-oxo-1,4-dihydro-quinoline-3-carboxylic acid]",2 µg/mL
8,"CCCCCCCCCCCCCCCC(=O)N1CCC[C@H]2CN(c3c(F)cc4c(=O)c(C(=O)O)cn(C5CC5)c4c3OC)C[C@H]21 [Compound 9m, 1-Cyclopropyl-6-fluoro-7-(1-hexadecanoyl-octahydro-pyrrolo[3,4-b]pyridin-6-yl)-8-methox-4-oxo-1,4-dihydro-quinoline-3-carboxylic acid]",> 512 µg/mL
9,"CCCCC/C=C\C/C=C\CCCCCCCC(=O)N1CCCC2CN(c3c(F)cc4c(=O)c(C(=O)O)cn(C5CC5)c4c3OC)CC21 (stereo not drawn) [Compound 11m, 1-Cyclopropyl-6-fluoro-8-methoxy-7-{1-(9Z,12Z)-octadeca-9,12-dienoyl-octahydropyrrolo-[3,4-b]pyridin-6-yl)-4-oxo-1,4-dihydro-quinoline-3-carboxylic acid]",256 µg/mL
10,"CCCCC/C=C\C/C=C\C/C=C\C/C=C\CCCC(=O)N1CCCC2CN(c3c(F)cc4c(=O)c(C(=O)O)cn(C5CC5)c4c3OC)CC21 (stereo not drawn) [Compound 13m, 1-Cyclopropyl-6-fluoro-7-{1-(5Z,8Z,11Z,14Z)-icosa-5,8,11,14-tetraenoyl-octahydro-pyrrolo[3,4-b]pyridin-6-yl}-8-methoxy-4-oxo-1,4-dihydro-quinoline-3-carboxylic acid]",2 µg/mL
11,"CCCCCCCC(=O)N1CCCC2CN(c3c(F)cc4c(=O)c(C(=O)O)cn(C5CC5)c4c3OC)CC21 (stereo not drawn) [Compound 15m, 1-Cyclopropyl-6-fluoro-8-methoxy-7-(1-octanoyl-octahydro-pyrrolo[3,4-b]pyridin-6-yl)-4-oxo-1,4-dihydro-quinoline-3-carboxylic acid]",128 µg/mL
12,"CCCCCCCCCCCCCCCCCC(=O)N1CCCC2CN(c3c(F)cc4c(=O)c(C(=O)O)cn(C5CC5)c4c3OC)CC21 (stereo not drawn) [Compound 16m, 1-Cyclopropyl-6-fluoro-8-methoxy-7-(1-octadecanoyl-octahydro-pyrrolo[3,4-b]pyridin-6-yl)-4-oxo-1,4-dihydro-quinoline-3-carboxylic acid]",> 512 µg/mL
13,"CC[C@@H](CO)NCCN[C@@H](CC)CO [Ethambutol (EMB), Ethambutol, reference compound]",32 µg/mL
14,"NNC(=O)c1ccncc1 [Isoniazid (INH), Isoniazid, reference compound]",16 µg/mL
15,"CO[C@H]1/C=C/O[C@@]2(C)Oc3c(C)c(O)c4c(O)c(c(/C=N/N5CCN(C)CC5)c(O)c4c3C2=O)NC(=O)/C(C)=C\C=C\[C@H](C)[C@H](O)[C@@H](C)[C@@H](O)[C@@H](C)[C@H](OC(C)=O)[C@@H]1C [Rifampicin (RMP), Rifampicin, reference compound]",32 µg/mL
16,"[H]/N=C(/N)N[C@H]1[C@H](O)[C@@H](O)[C@H](O[C@@H]2O[C@@H](C)[C@](O)(C=O)[C@H]2O[C@@H]2O[C@@H](CO)[C@H](O)[C@@H](O)[C@@H]2NC)[C@@H](N/C(N)=N\[H])[C@@H]1O [Streptomycin (SM), Streptomycin, reference compound]",16 µg/mL

# Same assay, conditions: multidrug-resistant Spec. 210, versus INH, RMP, SM, EMB
row,Compound,fold higher activity than referential tuberculostatics
1,"CC/C=C\C/C=C\C/C=C\C/C=C\C/C=C\C/C=C\CCC(=O)N1CCCC2CN(c3c(F)cc4c(=O)c(C(=O)O)cn(C5CC5)c4c3OC)CC21 (stereo not drawn) [Compound 8m, 1-Cyclopropyl-7-{1-(4Z,7Z,10Z,13Z,16Z,19Z)-docosa-4,7,10,13,16,19-hexaenoyl-octahydro-pyrrolo[3,4-b]pyridin-6-yl}-6-fluoro-8-methoxy-4-oxo-1,4-dihydro-quinoline-3-carboxylic acid]",8–16 fold
2,"CCCCC/C=C\C/C=C\C/C=C\C/C=C\CCCC(=O)N1CCCC2CN(c3c(F)cc4c(=O)c(C(=O)O)cn(C5CC5)c4c3OC)CC21 (stereo not drawn) [Compound 13m, 1-Cyclopropyl-6-fluoro-7-{1-(5Z,8Z,11Z,14Z)-icosa-5,8,11,14-tetraenoyl-octahydro-pyrrolo[3,4-b]pyridin-6-yl}-8-methoxy-4-oxo-1,4-dihydro-quinoline-3-carboxylic acid]",8–16 fold
